The values that follow come from the NIST ThermoML archive (doi:10.1016/j.fluid.2015.04.014).

± gives the expanded uncertainty stated by the source.

For this data set the following is noted: Crystal; visual observation.

`CC1(C)[C@@H]2CC[C@@]1(CS(=O)(=O)O)C(=O)C2` [(1S)-(+)-10-camphorsulfonic acid]: the Normal melting temperature was found to be 198.00 ± 4 °C.
